Assay results taken from PubChem BioAssay (NCI).
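Method: 48-hour compound exposure of cells in 96-well plates, five concentrations, linear interpolation of endpoints. TGI is the concentration that stops growth completely.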

Tests used:
Assay in all cases: NCI-60 cell line screen, 48 h
HT29 colon = system: HT29 colon
EKVX NSCLC = system: EKVX NSCLC
MDA-MB-231 breast = system: MDA-MB-231 breast
MCF7 breast = system: MCF7 breast
MDA-MB-435 = system: MDA-MB-435
HOP-62 NSCLC = system: HOP-62 NSCLC
UACC-257 melanoma = system: UACC-257 melanoma
NCI-H460 lung = system: NCI-H460 lung
OVCAR-8 ovarian = system: OVCAR-8 ovarian
SNB-19 CNS = system: SNB-19 CNS
NCI-H226 lung = system: NCI-H226 lung
A549 NSCLC = system: A549 NSCLC
SW-620 colon = system: SW-620 colon
T-47D breast = system: T-47D breast
HCC-2998 colon = system: HCC-2998 colon
SF-268 CNS = system: SF-268 CNS
786-0 renal = system: 786-0 renal
CAKI-1 renal = system: CAKI-1 renal
UO-31 renal = system: UO-31 renal
SK-MEL-2 melanoma = system: SK-MEL-2 melanoma
COLO 205 colon = system: COLO 205 colon
MOLT-4 leukemia = system: MOLT-4 leukemia
SK-MEL-5 melanoma = system: SK-MEL-5 melanoma
RPMI-8226 leukemia = system: RPMI-8226 leukemia
KM12 colon = system: KM12 colon
OVCAR-4 ovarian = system: OVCAR-4 ovarian
TK-10 renal = system: TK-10 renal
PC-3 prostate = system: PC-3 prostate
U251 CNS = system: U251 CNS
K-562 leukemia = system: K-562 leukemia
OVCAR-3 ovarian = system: OVCAR-3 ovarian
SF-539 CNS = system: SF-539 CNS
ACHN renal = system: ACHN renal
DU-145 prostate = system: DU-145 prostate
NCI/ADR-RES ovarian = system: NCI/ADR-RES ovarian
SK-MEL-28 melanoma = system: SK-MEL-28 melanoma
SR leukemia = system: SR leukemia
M14 melanoma = system: M14 melanoma
OVCAR-5 ovarian = system: OVCAR-5 ovarian
UACC-62 melanoma = system: UACC-62 melanoma
HCT-15 colon = system: HCT-15 colon
BT-549 breast = system: BT-549 breast
HOP-92 NSCLC = system: HOP-92 NSCLC
HCT-116 colon = system: HCT-116 colon
IGROV1 ovarian = system: IGROV1 ovarian
MALME-3M melanoma = system: MALME-3M melanoma
LOX IMVI melanoma = system: LOX IMVI melanoma
NCI-H23 lung = system: NCI-H23 lung
SNB-75 CNS = system: SNB-75 CNS
A498 renal = system: A498 renal
RXF 393 renal = system: RXF 393 renal
SF-295 CNS = system: SF-295 CNS
SK-OV-3 ovarian = system: SK-OV-3 ovarian

With `N#Cc1nnc2ccccc2c1N` the TGI (HT29 colon) was over 100 µM, the TGI (EKVX NSCLC) was over 100 µM and the TGI (MDA-MB-231 breast) was over 100 µM. The TGI (MCF7 breast) was over 100 µM, the TGI (MDA-MB-435) was over 100 µM and the TGI (HOP-62 NSCLC) was over 100 µM. It also gave a TGI (UACC-257 melanoma) of over 100 µM, a TGI (NCI-H460 lung) of over 100 µM and a TGI (OVCAR-8 ovarian) of over 100 µM. The TGI (SNB-19 CNS) was over 100 µM, the TGI (NCI-H226 lung) was over 100 µM and the TGI (A549 NSCLC) was over 100 µM. It also gave a TGI (SW-620 colon) of over 100 µM, a TGI (T-47D breast) of over 100 µM and a TGI (HCC-2998 colon) of over 100 µM. For the same compound, the TGI (SF-268 CNS) was over 100 µM, the TGI (786-0 renal) was over 100 µM and the TGI (CAKI-1 renal) was over 100 µM. The TGI (UO-31 renal) was over 100 µM, the TGI (SK-MEL-2 melanoma) was over 100 µM and the TGI (COLO 205 colon) was over 100 µM. The TGI (MOLT-4 leukemia) was over 100 µM, the TGI (SK-MEL-5 melanoma) was over 100 µM and the TGI (RPMI-8226 leukemia) was over 100 µM. It also gave a TGI (KM12 colon) of over 100 µM, a TGI (OVCAR-4 ovarian) of over 100 µM and a TGI (TK-10 renal) of over 100 µM. It also gave a TGI (PC-3 prostate) of over 100 µM, a TGI (U251 CNS) of over 100 µM and a TGI (K-562 leukemia) of over 100 µM. For the same compound, the TGI (OVCAR-3 ovarian) was 26.4 µM, the TGI (SF-539 CNS) was over 100 µM and the TGI (ACHN renal) was over 100 µM. The TGI (DU-145 prostate) was over 100 µM, the TGI (NCI/ADR-RES ovarian) was over 100 µM and the TGI (SK-MEL-28 melanoma) was over 100 µM. The TGI (SR leukemia) was over 100 µM, the TGI (M14 melanoma) was over 100 µM and the TGI (OVCAR-5 ovarian) was over 100 µM. The TGI (UACC-62 melanoma) was over 100 µM, the TGI (HCT-15 colon) was over 100 µM and the TGI (BT-549 breast) was over 100 µM. It also gave a TGI (HOP-92 NSCLC) of over 100 µM, a TGI (HCT-116 colon) of over 100 µM and a TGI (IGROV1 ovarian) of over 100 µM. The TGI (MALME-3M melanoma) was over 100 µM, the TGI (LOX IMVI melanoma) was over 100 µM and the TGI (NCI-H23 lung) was over 100 µM.
`CC1(C)C2CCC1(C)[C@H](O)[C@H]2Nc1cc(C(F)(F)F)cc(C(F)(F)F)c1` (stereo not given in full) gave a TGI (HT29 colon) of 12.5 µM, a TGI (EKVX NSCLC) of 12.5 µM and a TGI (SNB-75 CNS) of 3.56 µM. For the same compound, the TGI (MDA-MB-231 breast) was 15.3 µM, the TGI (MCF7 breast) was over 100 µM and the TGI (MDA-MB-435) was 11.6 µM. For the same compound, the TGI (HOP-62 NSCLC) was 17.7 µM, the TGI (UACC-257 melanoma) was 12.9 µM and the TGI (A498 renal) was over 100 µM. The TGI (NCI-H460 lung) was 12 µM, the TGI (OVCAR-8 ovarian) was 9.26 µM and the TGI (SNB-19 CNS) was 16.2 µM. For the same compound, the TGI (NCI-H226 lung) was 19.4 µM, the TGI (A549 NSCLC) was 13.6 µM and the TGI (SW-620 colon) was 12 µM. For the same compound, the TGI (T-47D breast) was 6.99 µM, the TGI (HCC-2998 colon) was 9.8 µM and the TGI (SF-268 CNS) was 8.02 µM. It also gave a TGI (786-0 renal) of 12.2 µM, a TGI (RXF 393 renal) of 9.03 µM and a TGI (CAKI-1 renal) of 13.1 µM. The TGI (UO-31 renal) was 12.7 µM, the TGI (SK-MEL-2 melanoma) was 5.45 µM and the TGI (COLO 205 colon) was 3.28 µM. The TGI (MOLT-4 leukemia) was 5.91 µM, the TGI (SK-MEL-5 melanoma) was 17.6 µM and the TGI (RPMI-8226 leukemia) was 7.11 µM. It also gave a TGI (KM12 colon) of 10.7 µM, a TGI (OVCAR-4 ovarian) of 17.3 µM and a TGI (TK-10 renal) of 9.89 µM. For the same compound, the TGI (PC-3 prostate) was 8.42 µM, the TGI (U251 CNS) was 14.2 µM and the TGI (K-562 leukemia) was 7.72 µM. It also gave a TGI (OVCAR-3 ovarian) of 6.01 µM, a TGI (SF-539 CNS) of 15.6 µM and a TGI (SF-295 CNS) of 7.27 µM. It also gave a TGI (ACHN renal) of over 100 µM, a TGI (DU-145 prostate) of 12.1 µM and a TGI (NCI/ADR-RES ovarian) of 7.13 µM. For the same compound, the TGI (SK-MEL-28 melanoma) was 7.14 µM, the TGI (SR leukemia) was 9.23 µM and the TGI (M14 melanoma) was 15.6 µM. It also gave a TGI (OVCAR-5 ovarian) of 21.1 µM, a TGI (SK-OV-3 ovarian) of 13.8 µM and a TGI (UACC-62 melanoma) of over 100 µM. The TGI (HCT-15 colon) was 12.6 µM, the TGI (BT-549 breast) was 8.31 µM and the TGI (HCT-116 colon) was 8.17 µM. For the same compound, the TGI (IGROV1 ovarian) was 11.5 µM, the TGI (MALME-3M melanoma) was 9.12 µM and the TGI (LOX IMVI melanoma) was 10.4 µM. The TGI (NCI-H23 lung) was 6.98 µM.
